# In ChEMBL document CHEMBL5576101, “Discovery of 1,2,3-triazole-based pleuromutilin derivatives as potent gram-positive antibacterial agents” (2024):
# Calls of active or inactive are those of the source. The rule behind the calls is not given here.
# Legend:
# Escherichia coli = experiment: Antibacterial activity against Escherichia coli by broth dilution method; assay type: functional
# Staphylococcus aureus [1] = experiment: Antibacterial activity against Staphylococcus aureus by broth dilution method; assay type: functional
# Staphylococcus aureus [2] = experiment: Antibacterial activity against methicillin-resistant Staphylococcus aureus by broth dilution method; assay type: functional
# [3] = test system: Staphylococcus epidermidis; experiment: Antibacterial activity against Staphylococcus epidermidis by broth dilution method; assay type: functional
# Enterococcus faecalis [4] = experiment: Antibacterial activity against Enterococcus faecalis by broth dilution method; assay type: functional
# Enterococcus faecalis [5] = experiment: Potency index, ratio of tiamulin MIC to test compound MIC for antibacterial activity Enterococcus faecalis by broth dilution method; assay type: functional
# [6] = test system: Staphylococcus epidermidis; experiment: Bacteriostatic activity against Staphylococcus epidermidis assessed as reduction in bacterial growth at 1 times MIC measured after 24 hrs by time kill assay; assay type: functional, organism-based
# Staphylococcus aureus [7] = experiment: Bacteriostatic activity against Staphylococcus aureus assessed as log reduction in viable cell count at 6 times MIC measured after 24 hrs by time kill assay; assay type: functional
# Staphylococcus aureus [8] = experiment: Potency index, ratio of tiamulin MIC to test compound MIC for antibacterial activity methicillin-resistant Staphylococcus aureus by broth dilution method; assay type: functional
# Staphylococcus aureus [9] = experiment: Bacteriostatic activity against Staphylococcus aureus assessed as log reduction in bacterial growth at 4 times MIC measured after 24 hrs by time kill assay; assay type: functional
# Staphylococcus aureus [10] = experiment: Bacteriostatic activity against methicillin-resistant Staphylococcus aureus assessed as reduction in bacterial growth at 1 times MIC measured after 24 hrs by time kill assay; assay type: functional, organism-based
# [11] = test system: Staphylococcus epidermidis; experiment: Potency index, ratio of tiamulin MIC to test compound MIC for antibacterial activity Staphylococcus epidermidis by broth dilution method; assay type: functional
# Staphylococcus aureus [12] = experiment: Bacteriostatic activity against methicillin-resistant Staphylococcus aureus assessed as log reduction in viable cell count at 6 times MIC measured after 24 hrs by time kill assay; assay type: functional
# Staphylococcus aureus [13] = experiment: Bacteriostatic activity against Staphylococcus aureus assessed as log reduction in bacterial growth at 2 times MIC measured after 24 hrs by time kill assay; assay type: functional
# Staphylococcus aureus [14] = experiment: Bacteriostatic activity against Staphylococcus aureus assessed as reduction in bacterial growth at 1 times MIC measured after 24 hrs by time kill assay; assay type: functional, organism-based
# Staphylococcus aureus [15] = experiment: Potency index, ratio of tiamulin MIC to test compound MIC for antibacterial activity Staphylococcus aureus by broth dilution method; assay type: functional
# [16] = test system: Staphylococcus epidermidis; experiment: Bacteriostatic activity against Staphylococcus epidermidis assessed as log reduction in bacterial growth at 6 times MIC measured after 24 hrs by time kill assay; assay type: functional
Compound,MIC (Escherichia coli),MIC (Staphylococcus aureus [1]),MIC (Staphylococcus aureus [2]),MIC [3],MIC (Enterococcus faecalis [4]),Ratio (Enterococcus faecalis [5]),Activity [6],log(activity) (Staphylococcus aureus [7]),Ratio (Staphylococcus aureus [8]),log(activity) (Staphylococcus aureus [9]),Activity (Staphylococcus aureus [10]),Ratio [11],log(activity) (Staphylococcus aureus [12]),log(activity) (Staphylococcus aureus [13]),Activity (Staphylococcus aureus [14]),Ratio (Staphylococcus aureus [15]),log(activity) [16]
C=C[C@]1(C)C[C@@H](OC(=O)CSC(C)(C)CNC(=O)Cn2cc(CNc3ccc(C)cc3)nn2)[C@]2(C)[C@H](C)CC[C@]3(CCC(=O)[C@H]32)[C@@H](C)[C@@H]1O,> 64 µg/mL,16 µg/mL,16 µg/mL,2 µg/mL,64 µg/mL,–,–,–,–,–,–,–,–,–,–,–,–
C=C[C@]1(C)C[C@@H](OC(=O)CSC(C)(C)CNC(=O)Cn2cc(COc3ccc([N+](=O)[O-])cc3)nn2)[C@]2(C)[C@H](C)CC[C@]3(CCC(=O)[C@H]32)[C@@H](C)[C@@H]1O,> 64 µg/mL,4 µg/mL,4 µg/mL,1 µg/mL,64 µg/mL,–,–,–,–,–,–,–,–,–,–,–,–
C=C[C@]1(C)C[C@@H](OC(=O)CSC(C)(C)CNC(=O)Cn2cc(COc3ccc([N+](=O)[O-])cc3[N+](=O)[O-])nn2)[C@]2(C)[C@H](C)CC[C@]3(CCC(=O)[C@H]32)[C@@H](C)[C@@H]1O,> 64 µg/mL,0.062 µg/mL,0.062 µg/mL,0.062 µg/mL,0.25 µg/mL,128,Active,4.1,4,3.38,Active,8,4.3,1.98,Active,64,–
C=C[C@]1(C)C[C@@H](OC(=O)CSCCN(CC)CC)[C@]2(C)[C@H](C)CC[C@]3(CCC(=O)[C@H]32)[C@@H](C)[C@@H]1O [TIAMULIN],> 64 µg/mL,4 µg/mL,0.25 µg/mL,0.5 µg/mL,32 µg/mL,–,–,–,–,–,–,–,–,–,–,–,–
C=C[C@]1(C)C[C@@H](OC(=O)CSC(C)(C)CNC(=O)Cn2cc(CNc3ccc([N+](=O)[O-])cc3)nn2)[C@]2(C)[C@H](C)CC[C@]3(CCC(=O)[C@H]32)[C@@H](C)[C@@H]1O,> 64 µg/mL,64 µg/mL,0.25 µg/mL,0.125 µg/mL,2 µg/mL,–,Active,–,–,–,Active,–,–,–,Active,–,4.4
C=C[C@]1(C)C[C@@H](OC(=O)CSC(C)(C)CNC(=O)Cn2cc(CC3CC3)nn2)[C@]2(C)[C@H](C)CC[C@]3(CCC(=O)[C@H]32)[C@@H](C)[C@@H]1O,> 64 µg/mL,4 µg/mL,8 µg/mL,0.5 µg/mL,64 µg/mL,–,–,–,–,–,–,–,–,–,–,–,–
C=C[C@]1(C)C[C@@H](OC(=O)CSC(C)(C)CNC(=O)Cn2cc(CNc3ccc(Cl)cc3)nn2)[C@]2(C)[C@H](C)CC[C@]3(CCC(=O)[C@H]32)[C@@H](C)[C@@H]1O,> 64 µg/mL,2 µg/mL,8 µg/mL,8 µg/mL,64 µg/mL,–,–,–,–,–,–,–,–,–,–,–,–
C=C[C@]1(C)C[C@@H](OC(=O)CSC(C)(C)CNC(=O)Cn2cc(CNc3ccc(OC)cc3)nn2)[C@]2(C)[C@H](C)CC[C@]3(CCC(=O)[C@H]32)[C@@H](C)[C@@H]1O,> 64 µg/mL,4 µg/mL,4 µg/mL,2 µg/mL,64 µg/mL,–,–,–,–,–,–,–,–,–,–,–,–
C=C[C@]1(C)C[C@@H](OC(=O)CSC(C)(C)CNC(=O)Cn2cc(COc3ccc(C)cc3)nn2)[C@]2(C)[C@H](C)CC[C@]3(CCC(=O)[C@H]32)[C@@H](C)[C@@H]1O,> 64 µg/mL,> 64 µg/mL,0.062 µg/mL,0.062 µg/mL,16 µg/mL,–,–,–,–,–,–,–,–,–,–,–,–
C=C[C@]1(C)C[C@@H](OC(=O)CSC(C)(C)CNC(=O)Cn2cc(Cc3cccc(N)c3)nn2)[C@]2(C)[C@H](C)CC[C@]3(CCC(=O)[C@H]32)[C@@H](C)[C@@H]1O,> 64 µg/mL,> 64 µg/mL,0.062 µg/mL,0.062 µg/mL,> 64 µg/mL,–,Active,4.1,–,–,Active,–,4.3,–,Active,–,–
C=C[C@]1(C)C[C@@H](OC(=O)CSC(C)(C)CNC(=O)Cn2cc(COc3ccccc3)nn2)[C@]2(C)[C@H](C)CC[C@]3(CCC(=O)[C@H]32)[C@@H](C)[C@@H]1O,> 64 µg/mL,64 µg/mL,8 µg/mL,8 µg/mL,16 µg/mL,–,–,–,–,–,–,–,–,–,–,–,–
C=C[C@]1(C)C[C@@H](OC(=O)CSC(C)(C)CNC(=O)Cn2cc(Cc3ccc(OC)cc3)nn2)[C@]2(C)[C@H](C)CC[C@]3(CCC(=O)[C@H]32)[C@@H](C)[C@@H]1O,> 64 µg/mL,0.5 µg/mL,> 64 µg/mL,0.5 µg/mL,1 µg/mL,–,–,–,–,–,–,–,–,–,–,–,–
C=C[C@]1(C)C[C@@H](OC(=O)CSC(C)(C)CNC(=O)Cn2cc(CNc3ccc(CCC)cc3)nn2)[C@]2(C)[C@H](C)CC[C@]3(CCC(=O)[C@H]32)[C@@H](C)[C@@H]1O,> 64 µg/mL,32 µg/mL,4 µg/mL,16 µg/mL,> 64 µg/mL,–,–,–,–,–,–,–,–,–,–,–,–
C=C[C@]1(C)C[C@@H](OC(=O)CSC(C)(C)CNC(=O)Cn2cc(Cc3cccnc3)nn2)[C@]2(C)[C@H](C)CC[C@]3(CCC(=O)[C@H]32)[C@@H](C)[C@@H]1O,> 64 µg/mL,16 µg/mL,2 µg/mL,0.25 µg/mL,0.062 µg/mL,–,–,–,–,–,–,–,–,–,–,–,–
C=C[C@]1(C)C[C@@H](OC(=O)CSC(C)(C)CNC(=O)Cn2cc(CNc3ccc(OCCCCCC)cc3)nn2)[C@]2(C)[C@H](C)CC[C@]3(CCC(=O)[C@H]32)[C@@H](C)[C@@H]1O,> 64 µg/mL,> 64 µg/mL,16 µg/mL,0.5 µg/mL,0.062 µg/mL,–,–,–,–,–,–,–,–,–,–,–,–
C=C[C@]1(C)C[C@@H](OC(=O)CSC(C)(C)CNC(=O)Cn2cc(CNc3ccc(Br)cc3)nn2)[C@]2(C)[C@H](C)CC[C@]3(CCC(=O)[C@H]32)[C@@H](C)[C@@H]1O,> 64 µg/mL,> 64 µg/mL,64 µg/mL,16 µg/mL,> 64 µg/mL,–,–,–,–,–,–,–,–,–,–,–,–
C=C[C@]1(C)C[C@@H](OC(=O)CSC(C)(C)CNC(=O)Cn2cc(Cc3ccccc3)nn2)[C@]2(C)[C@H](C)CC[C@]3(CCC(=O)[C@H]32)[C@@H](C)[C@@H]1O,> 64 µg/mL,16 µg/mL,4 µg/mL,4 µg/mL,64 µg/mL,–,–,–,–,–,–,–,–,–,–,–,–
C=C[C@]1(C)C[C@@H](OC(=O)CSC(C)(C)CNC(=O)Cn2cc(CNc3ccc(CCCCCC)cc3)nn2)[C@]2(C)[C@H](C)CC[C@]3(CCC(=O)[C@H]32)[C@@H](C)[C@@H]1O,> 64 µg/mL,32 µg/mL,8 µg/mL,2 µg/mL,> 64 µg/mL,–,–,–,–,–,–,–,–,–,–,–,–
